From patent publication US11957766B2, “HNQO1-activatable fluorescent probe for imaging cancer cells in-vitro and in-vivo” (Texas Tech University System, priority 2019, dated 2024)

Legend:
IMR90, HUVEC cells = test: Fluorescence microscopy of NIR-ASM in NQO1 non-expressing normal cells; format: cell-based, human; details: 10 μM, 60 min
Procedure: Detection of NQO1 in live cells. Inspired by the excellent biocompatibility, the inventors investigated its performance in both NQO1 expressing cancer cells (A549, H460) and NQO1 non-expressing normal cells (IMR90, HUVEC). All cells were incubated with NIR-ASM (10 μM) for 60 min, washed with PBS and were imaged under a confocal microscope after counterstaining the nuclei with Hoechst 33342 (FIG. 12A). […] The higher expression of NQO1 protein in A549 and H460 cells and its absence in normal cells, IMR90 and HUVEC as found with western blot analysis correlated with the probe reactivity in cells (FIG. 12B). […] Cell sorting using flow cytometry is a well-established technology in clinical diagnostics and biomedical research. To assess the applicability of the NIR-ASM to rapidly detect and quantify in both cancer and normal cells based on NQO1 expression, the probe was incubated with cell suspensions for 60 min, and about 1×10^4 cells were analyzed on a flow cytometer.
Fluorescence imaging. Both cancer and normal cells were seeded into 6-well plates and cultured overnight in respective media at 37° C. Cells were treated with 10 μM NIR-ASM and incubated at 37° C. for 60 min. They were then treated with nuclear stain Hoechst 33342 for 5 min. Finally, the medium was replaced with PBS and the live cells were imaged using a multiphoton confocal fluorescence microscope (λex/em=488/644 nm). […]

NQO1 = NQO1 (Homo sapiens, UniProt P15559); test: HPLC analysis of NQO1 catalyzed conversion of NIR-ASM; format: biochemical; parameters: purchased Sigma-Aldrich D1515; details: after 30 min of incubation
Text: Design, preparation, and characterization of the NIR-ASM fluorescent probe. Imaging agents emitting near-infrared fluorescence enable deeper penetration with low phototoxicity and high signal-to-background ratios due to minimal tissue auto-fluorescence, which is a prime requirement for in vivo imaging studies.^40,41 Accordingly, the inventors designed an NQO1 activatable near-infrared fluorescent probe (NIR-ASM) by attaching a trimethyl-lock QPA with (E)-2-(3-(4-aminostyryl)-5,5-dimethylcyclohex-2-en-1-ylidene)malononitrile (ASM) for molecular imaging of cancer cells in vivo (FIG. 9A). The fluorophore ASM was used in this study because of its strong NIR fluorescence signal with substantial Stokes shift (˜190 nm), to eliminate background interferences by avoiding reabsorption of emitted photons. […] NQO1 is a ubiquitous cytosolic two-electron reductase that catalyzes the reduction of quinone substrates in the presence of NADH. Upon interaction with NQO1 in the presence of NADH, QPA present in non-fluorescent NIR-ASM undergoes two-electron reduction to form an o-hydroxydihydrocinnamic acid derivative that undergoes rapid lactonization under physiological conditions to yield dihydrocoumarin, 6-hydroxy-4,4,5,7,8-pentamethylchroman-2-one (HPC) along with highly fluorescent ASM. […]

NQO1, sequence (P15559 whole entry): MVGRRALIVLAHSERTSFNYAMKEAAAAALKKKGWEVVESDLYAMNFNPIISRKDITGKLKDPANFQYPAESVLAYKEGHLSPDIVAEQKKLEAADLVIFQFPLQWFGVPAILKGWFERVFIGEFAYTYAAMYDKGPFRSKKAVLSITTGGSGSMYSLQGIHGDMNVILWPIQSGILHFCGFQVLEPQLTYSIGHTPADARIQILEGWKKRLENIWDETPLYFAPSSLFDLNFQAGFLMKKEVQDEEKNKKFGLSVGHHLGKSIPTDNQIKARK

`CC1=C(C)C(=O)C(C(C)(C)CC(=O)Nc2ccc(/C=C/C3=CC(=C(C#N)C#N)CC(C)(C)C3)cc2)=C(C)C1=O` [NIR-ASM, (E)-N-(4-(2-(3-(dicyanomethylene)-5,5-dimethylcyclohex-1-en-1-yl)vinyl)phenyl)-3-methyl-3-(2,4,5-trimethyl-3,6-dioxocyclohexa-1,4-dien-1-yl)butanamide] was tested, and the “fluorescence signal in normal cells” value (IMR90, HUVEC cells) was “did not show any fluorescence” and the “conversion into ASM by NQO1 (HPLC)” value (NQO1) was “nearly completely converted into ASM”.
